Drawing on patent US8414938B2, “Schisandrae fructus extracts for inhibition or prevention of H1N1 influenza virus infection and its application thereof” (National Defense Medical Center, priority 2011, dated 2013), this text covers MIC for six molecules.

This assay relates to H1N1-TR (Tamiflu resistant virus strain). As to the kind of experiment: microbe, parasite or virus in culture. It counts as cell-based. To be noted: unidentified influenza virus, H1N1, read-out: MIC, H1N1-TR.

Values after ≈ are worked out from the molar mass of the structure shown.

Consider `C/C=C(\C)C(=O)O[C@H]1c2cc(OC)c(OC)c(OC)c2-c2c(cc3c(c2OC)OCO3)C[C@H](C)[C@@]1(C)O` (atropisomer, axis not shown) [Tigloylgomisin P], for which the MIC was 75 µg/mL (≈ 146 µM).

On to `COc1cc2c(cc1O)C(=O)[C@@H](C)[C@@H](C)[C@@H]2c1ccc(OC)c(OC)c1` [Schisandrone], for which the MIC is 6.25 µg/mL (≈ 17.5 µM).

In the case of `COc1cc2c(c(OC)c1OC)-c1c(cc3c(c1OC)OCO3)C[C@H](C)[C@@](C)(O)[C@H]2OC(=O)c1ccccc1` (atropisomer, axis not shown) [Benzoylgomisin P], the MIC turned out to be 12.5 µg/mL (≈ 23.3 µM).

In the case of `NC(=O)c1ncn([C@@H]2O[C@H](CO)[C@@H](O)[C@H]2O)n1` [Ribavirin, ribavirin, reference compound], the MIC is 3.12 µg/mL (≈ 12.8 µM).

As to `COc1cc([C@@H]2c3cc(OC)c(O)cc3C(=O)[C@@H](C)[C@H]2C)ccc1O` [Wulignan A1], the MIC is 12.5 µg/mL (≈ 36.5 µM).

Regarding `COc1cc([C@@H]2c3cc(OC)c(O)cc3C(=O)[C@H](C)[C@H]2C)ccc1O` [Epiwulignan A1], the MIC was found to be 12.5 µg/mL (≈ 36.5 µM).
